These results are taken from ChEMBL document CHEMBL5518238, “Structure-Activity Relationship (SAR) Studies of Novel Monovalent AR/AR-V7 Dual Degraders with Potent Efficacy against Advanced Prostate Cancer” (J Med Chem, 2024).

The structures appear in SMILES notation. Activity calls are given as the source filed them. The rule behind the calls is not given here.

The first series relates to CWR22R. The series can be described thus: Antitumor activity against human 22Rv1 cells xenografted in NSG mouse assessed as change in tumor volume at 30 mg/kg, IG administered once daily for 21 days. In kind it is functional, organism-based. The note with it: time 21.0 day. (In general: Xenograft models place foreign cells or tissue in a host animal.)
As to `C[C@]12CC[C@H](O)CC1=CC[C@@H]1[C@@H]2CC[C@]2(C)C(c3cccnc3)=CC[C@@H]12` [ABIRATERONE], the result was Active.

Regarding `CNC(=O)c1ccc(N2C(=S)N(c3ccc(C#N)c(C(F)(F)F)c3)C(=O)C2(C)C)cc1F` [ENZALUTAMIDE], the outcome was Active.

The test system of the next series is DU-145. The series can be described thus: Antiproliferative activity against AR-negative human DU-145 cells assessed as inhibition of cell growth incubated for 48 hrs by CCK-8 assay. The note with it: DU-145, 48 h. In kind it is functional, cell-based. In general terms: Tetrazolium assays rely on reduction of a dye to a coloured formazan, in cell work by metabolically active cells.
For orientation: IC50 means the concentration at which inhibition is half-maximal. In the case of `CC1(C)C(=O)N(c2ccc(C#N)c(C(F)(F)F)c2)C(=O)N1CCNc1ccc(C#N)c2ncccc12`, the IC50 is above 50 µM.

`CC1(C)C(=O)N(c2ccc(C#N)c(C(F)(F)F)c2)C(=O)N1CCNc1ccc([N+](=O)[O-])c2ncccc12`: the IC50 was above 50 µM.

Turning to `CC1(C)C(=O)N(c2ccc(C#N)c(C(F)(F)F)c2)C(=O)N1CCNc1ccc2cnccc2c1`, the IC50 stood at 33 µM.

`CC1(C)C(=O)N(c2ccc(C#N)c(C(F)(F)F)c2)C(=O)N1CCNc1ccc2ccncc2c1`: the IC50 was above 50 µM.

`CC1(C)C(=O)N(c2ccc(C#N)c(C(F)(F)F)c2)C(=O)N1CCNc1cccc2ccncc12`: the IC50 was above 50 µM.

As to `Cc1ccc(NCCN2C(=O)N(c3ccc(C#N)c(C(F)(F)F)c3)C(=O)C2(C)C)c2cccnc12`, the IC50 was above 50 µM.

A further series concerns LNCaP. Nature of the series: Antiproliferative activity against human LNCaP cells assessed as inhibition of cell growth incubated for 48 hrs by CCK-8 assay. Format: functional, cell-based.
Settings: not given
On to `C[C@]12CC[C@H](O)CC1=CC[C@@H]1[C@@H]2CC[C@]2(C)C(n3cnc4ccccc43)=CC[C@@H]12` [GALETERONE], for which the half-maximal inhibitory concentration (IC50) is 2 µM.

Tested on in the next series: not listed separately
Nature of the series: Antiproliferative activity against human L02 cells assessed as inhibition of cell growth incubated for 48 hrs by CCK-8 assay. In kind it is toxicity, cell-based.
Settings: not given
Turning to `C[C@]12CC[C@H](O)CC1=CC[C@@H]1[C@@H]2CC[C@]2(C)C(n3cnc4ccccc43)=CC[C@@H]12` [GALETERONE], the IC50 at 48 h is above 100 µM.

The next series concerns CWR22R. Nature of the series: cells. Format: functional, cell-based. The note with it: Homo sapiens, 22Rv1, 48 h.
Description: Antiproliferative activity against AR/AR-V7 positive human 22Rv1 cells assessed as inhibition of cell growth incubated for 48 hrs by CCK-8 assay
For `CC1(C)C(=O)N(c2ccc([N+](=O)[O-])c(C(F)(F)F)c2)C(=O)N1CC(=O)Nc1cccnc1`, the IC50 is above 50 µM.

`CC1(C)C(=O)N(c2ccc([N+](=O)[O-])c(C(F)(F)F)c2)C(=O)N1CC(=O)NCc1ccccn1` gave an IC50 of 26 µM.

In turn, `CC1(C)C(=O)N(c2ccc(C#N)c(C(F)(F)F)c2)C(=O)N1CCCNc1ccc2ccncc2c1` showed an IC50 of 22 µM.

The compound `CC1(C)C(=O)N(c2ccc(C#N)c(C(F)(F)F)c2)C(=O)N1Cn1cc(Br)cn1` gave an IC50 of 23.2 µM.

Regarding `CC1(C)C(=O)N(c2ccc(C#N)c(C(F)(F)F)c2)C(=O)N1CC(=O)Nc1cccc2ncccc12`, the midpoint of inhibition, the IC50, lay at 24.9 µM.

In turn, `CC1(C)C(=O)N(c2ccc(C#N)c(C(F)(F)F)c2)C(=O)N1Cn1cc(F)cn1` had an IC50 of 14.5 µM.

In turn, `CC1(C)C(=O)N(c2ccc([N+](=O)[O-])c(C(F)(F)F)c2)C(=O)N1CC(=O)Nc1ccccn1` gave an IC50 above 50 µM.

For the compound `N#Cc1ccc(O[C@H]2CC[C@H](NC(=O)c3ccc(N4CCC(CN5CCN(c6cc7c(cc6F)C(=O)N(C6CCC(=O)NC6=O)C7=O)CC5)CC4)nn3)CC2)cc1Cl` (stereo not given in full) [BAVDEGALUTAMIDE], the IC50 stood at 3.9 µM.

`CC1(C)C(=O)N(c2ccc(C#N)c(C(F)(F)F)c2)C(=O)N1CCNc1ncccn1` came in with a half-maximal inhibitory concentration (IC50) of 24.9 µM.

Regarding `CC1(C)C(=O)N(c2ccc(C#N)c(C(F)(F)F)c2)C(=O)N1CCNc1cccc2cccnc12`, the IC50 was above 50 µM.

Take `C[C@]12CC[C@H](O)CC1=CC[C@@H]1[C@@H]2CC[C@]2(C)C(n3cnc4ccccc43)=CC[C@@H]12` [GALETERONE]: the midpoint of inhibition, the IC50, lay at 11.6 µM.

In turn, `CC1(C)C(=O)N(c2ccc(C#N)c(C(F)(F)F)c2)C(=O)N1CCNc1ccc(C#N)c2ncccc12` yielded an IC50 of 2.8 µM.

`CC1(C)C(=O)N(c2ccc(C#N)c(C(F)(F)F)c2)C(=O)N1CCNc1cncnc1` returned a half-inhibitory concentration (IC50) of 43.9 µM.

`CC1(C)C(=O)N(c2ccc(C#N)c(C(F)(F)F)c2)C(=O)N1CCCn1cc(Br)cn1` returned an IC50 of 2 µM.

As to `CC1(C)C(=O)N(c2ccc(C#N)c(C(F)(F)F)c2)C(=O)N1CCN(c1ccc2cccnc2c1)c1ccc2cccnc2c1`, the IC50 was above 50 µM.

`CC1(C)C(=O)N(c2ccc(C#N)c(C(F)(F)F)c2)C(=O)N1CCNc1ccc([N+](=O)[O-])c2ncccc12`: the IC50 was determined as 3.1 µM.

Compound `CC1(C)C(=O)N(c2ccc(C#N)c(C(F)(F)F)c2)C(=O)N1CCn1cc(F)cn1` had an IC50 of 7.9 µM.

The compound `CC1(C)C(=O)N(c2ccc(C#N)c(C(F)(F)F)c2)C(=O)N1CCCNc1cccc2ncccc12` returned an IC50 of 25.7 µM.

`CC1(C)C(=O)N(c2ccc(C#N)c(C(F)(F)F)c2)C(=O)N1CC(=O)Nc1ccc2ncccc2c1` yielded an IC50 of 35.8 µM.

Take `CC1(C)C(=O)N(c2ccc(C#N)c(C(F)(F)F)c2)C(=O)N1CCNc1cccc2ccccc12`: half-maximal inhibition (IC50) was put at 19.5 µM.

`CC1(C)C(=O)N(c2ccc(C#N)c(C(F)(F)F)c2)C(=O)N1CCNc1ccc2ccccc2c1` displayed an IC50 above 50 µM.

For the compound `CC1(C)C(=O)N(c2ccc(C#N)c(C(F)(F)F)c2)C(=O)N1CCNc1ccc2cnccc2c1`, the IC50 worked out at 5.1 µM.

Consider `CC1(C)C(=O)N(c2ccc(C#N)c(C(F)(F)F)c2)C(=O)N1CCCn1cc(F)cn1`, for which 3.7 µM corresponded to half-maximal inhibition (IC50).

In the case of `CC1(C)C(=O)N(c2ccc(C#N)c(C(F)(F)F)c2)C(=O)N1CCNc1ccc2ncccc2c1`, half-maximal inhibition (IC50) was put at 5.4 µM.

Compound `CC1(C)C(=O)N(c2ccc(C#N)c(C(F)(F)F)c2)C(=O)N1CCn1cc(C(F)(F)F)cn1` had an IC50 of 8.9 µM.

In turn, `CC1(C)C(=O)N(c2ccc(C#N)c(C(F)(F)F)c2)C(=O)N1CCNc1ccc2ccncc2c1` came in with an IC50 of 2.3 µM.

Regarding `CC1(C)C(=O)N(c2ccc(C#N)c(C(F)(F)F)c2)C(=O)N1CCN(c1ccc2ncccc2c1)c1ccc2ncccc2c1`, the midpoint of inhibition, the IC50, lay at 6.8 µM.

The compound `CC1(C)C(=O)N(c2ccc(C#N)c(C(F)(F)F)c2)C(=O)N1CCCNc1ccc2ncccc2c1` came in with an IC50 of 27.3 µM.

Regarding `CC1(C)C(=O)N(c2ccc(C#N)c(C(F)(F)F)c2)C(=O)N1CC(=O)Nc1ccnc2ccccc12`, the IC50 stood at 13.8 µM.

`CC1(C)C(=O)N(c2ccc(C#N)c(C(F)(F)F)c2)C(=O)N1CCN(c1ccc2nccnc2c1)c1ccc2nccnc2c1`: it took 12.2 µM to reach half-maximal inhibition (IC50).

`CC1(C)C(=O)N(c2ccc(C#N)c(C(F)(F)F)c2)C(=O)N1CCNc1cccc2ncccc12` came in with an IC50 of 1.3 µM.

The compound `CC1(C)C(=O)N(c2ccc(C#N)c(C(F)(F)F)c2)C(=O)N1CC(=O)NCc1ccccn1` returned an IC50 of 33.7 µM.

In the case of `CC1(C)C(=O)N(c2ccc(C#N)c(C(F)(F)F)c2)C(=O)N1CCNc1ccc2cccnc2c1`, the IC50 turned out to be 2.2 µM.

Regarding `CC1(C)C(=O)N(c2ccc(C#N)c(C(F)(F)F)c2)C(=O)N1CCCNc1cccc2ccncc12`, the IC50 was determined as 21.8 µM.

For `CC1(C)C(=O)N(c2ccc(C#N)c(C(F)(F)F)c2)C(=O)N1CCNc1cnc2ccccc2c1`, it took 49.5 µM to reach half-maximal inhibition (IC50).

Compound `CC1(C)C(=O)N(c2ccc(C#N)c(C(F)(F)F)c2)C(=O)N1Cn1cc(C(F)(F)F)cn1` displayed a 50% inhibitory concentration (IC50) of 11.3 µM.

In turn, `CC1(C)C(=O)N(c2ccc(C#N)c(C(F)(F)F)c2)C(=O)N1CCNc1ccccn1` displayed an IC50 of 13.1 µM.

`CC1(C)C(=O)N(c2ccc(C#N)c(C(F)(F)F)c2)C(=O)N1CCN(c1ccc(-c2ccncc2)cc1)c1ccc(-c2ccncc2)cc1` showed a 50% inhibitory concentration (IC50) above 50 µM.

On to `CC(C)(c1ccc(OC[C@H](O)CO)cc1)c1ccc(OC[C@H](O)CCl)cc1`, for which the IC50 stood at 40.4 µM.

Regarding `CC1(C)C(=O)N(c2ccc(C#N)c(C(F)(F)F)c2)C(=O)N1CC(=O)Nc1cnc2ccccc2c1`, the IC50 worked out at 14.6 µM.

Take `CC1(C)C(=O)N(c2ccc(C#N)c(C(F)(F)F)c2)C(=O)N1CC(=O)Nc1ccccn1`: it took 17 µM to reach half-maximal inhibition (IC50).

The compound `CC1(C)C(=O)N(c2ccc(C#N)c(C(F)(F)F)c2)C(=O)N1CCCn1cc(C(F)(F)F)cn1` showed an IC50 of 19.8 µM.

Compound `CC1(C)C(=O)N(c2ccc(C#N)c(C(F)(F)F)c2)C(=O)N1CC(=O)Nc1cccc2cccnc12` displayed an IC50 of 23.5 µM.

`CC1(C)C(=O)N(c2ccc(C#N)c(C(F)(F)F)c2)C(=O)N1CC(=O)Nc1cccnc1` registered an IC50 of 10.8 µM.

Turning to `CC1(C)C(=O)N(c2ccc(C#N)c(C(F)(F)F)c2)C(=O)N1CCn1cc(Br)cn1`, the IC50 stood at 46.3 µM.

As for `CC1(C)C(=O)N(c2ccc(C#N)c(C(F)(F)F)c2)C(=O)N1CCNc1cccc2ccncc12`, half-maximal inhibition (IC50) was put at 7.8 µM.

`CNC(=O)c1ccc(N2C(=S)N(c3ccc(C#N)c(C(F)(F)F)c3)C(=O)C2(C)C)cc1F` [ENZALUTAMIDE]: it took 15.6 µM to reach half-maximal inhibition (IC50).

`CC1(C)C(=O)N(c2ccc([N+](=O)[O-])c(C(F)(F)F)c2)C(=O)N1CC(=O)NCc1cccnc1`: the IC50 is above 50 µM.

As for `CC1(C)C(=O)N(c2ccc(C#N)c(C(F)(F)F)c2)C(=O)N1CCNc1cnccn1`, the IC50 is 10.6 µM.

The compound `CC1(C)C(=O)N(c2ccc(C#N)c(C(F)(F)F)c2)C(=O)N1CCn1cnc(C(F)(F)F)n1` had an IC50 of 10.3 µM.

Take `CC1(C)C(=O)N(c2ccc(C#N)c(C(F)(F)F)c2)C(=O)N1CCNc1ccnc2ccccc12`: the IC50 was 8.7 µM.

The compound `CC1(C)C(=O)N(c2ccc(C#N)c(C(F)(F)F)c2)C(=O)N1CC(=O)NCc1cccnc1` returned an IC50 of 22.1 µM.

Consider `Cc1ccc(NCCCN2C(=O)N(c3ccc(C#N)c(C(F)(F)F)c3)C(=O)C2(C)C)c2cccnc12`, for which the IC50 is 36.8 µM.

In turn, `CC1(C)C(=O)N(c2ccc(C#N)c(C(F)(F)F)c2)C(=O)N1CCCn1ccc2cc(F)ccc21` came in with an IC50 of 13.6 µM.

Compound `CC1(C)C(=O)N(c2ccc(C#N)c(C(F)(F)F)c2)C(=O)N1CCN(c1ccc2ncncc2c1)c1ccc2ncncc2c1` displayed an IC50 of 15 µM.

`CC1(C)C(=O)N(c2ccc(C#N)c(C(F)(F)F)c2)C(=O)N1CCNc1cccnc1`: the IC50 came out at 11.9 µM.

Turning to `Cc1ccc(NCCN2C(=O)N(c3ccc(C#N)c(C(F)(F)F)c3)C(=O)C2(C)C)c2cccnc12`, 9.8 µM corresponded to half-maximal inhibition (IC50).

As to `CC1(C)C(=O)N(c2ccc(C#N)c(C(F)(F)F)c2)C(=O)N1CCNc1ccc2ccccc2n1`, the IC50 was found to be 11.7 µM.

Tested on in another series: not listed separately
The series can be described thus: Toxicity in NSG mouse xenografted with human 22Rv1 cells assessed as effect on body weight at 30 mg/kg, IG administered once daily for 21 days. In kind it is organism-based, CWR22R. To be noted: in vivo, po, 504 h, time 21 day.
In the case of `C[C@]12CC[C@H](O)CC1=CC[C@@H]1[C@@H]2CC[C@]2(C)C(c3cccnc3)=CC[C@@H]12` [ABIRATERONE], the Activity result was “Non-Toxic”.

In the case of `CNC(=O)c1ccc(N2C(=S)N(c3ccc(C#N)c(C(F)(F)F)c3)C(=O)C2(C)C)cc1F` [ENZALUTAMIDE], the Activity entry is listed as “Non-Toxic”.
